Data reported in patent publication US12454529B2, “Piperazine cyclic ureas” (SIRONAX LTD., priority 2020, dated 2025).

Test system: HT-29 cells
Assay: HT-29 cell necrosis/necroptosis inhibition (TNF-α + SMAC mimetic + zVAD-FMK; CellTiter-Glo cell viability)
Format: cell-based
Conditions: Homo sapiens; HT-29 cells, TNF-α 10 ng/ml + SMAC mimetic 6 μM + zVAD-FMK 10 μM, 20 hours; geometric mean, 10 points in duplicate; read-out: EC50 (Cell activity; Necrosis/Necroptosis Inhibitory Activity, Compounds 1-142)
Method: Compounds 1-319 (denoted as Compound Nos. 1 through 319 in Table 3 and 4) of the disclosure were tested for binding and cellular RIP1 inhibitory activity following the experimental procedures described below.
• Cell line: HT-29 (ATCC® HTB-38™) • Culture medium: McCOY's 5A, Gibco, Cat No. 16600-082 • FBS, Gibco, Cat No. 10099-141C • Trypsin: Gibco, Cat No. 25200-056 • DMSO: Sigma, Cat No. 67-68-5, 1L • Assay plate: Corning #3903 • Compound dilution plate: Corning #3357 • Inducers: TNFα, GenScript, Cat No. Z01001-50, • SmacM, Cat. No., HY-15989, MedChemExpress (MCE) • Z_VAD FMK, TargetMol, T6013 • Cell Titer-Glo® Luminescent Cell Viability Assay Kit: Promega, Cat No. G7573 • EnVision: PerkinElmer, 2105-0010 Methods Cell Seeding
1. HT-29 cells were checked every day to make sure that they were healthy and growing as expected. They were subjected to sub-culturing when they were approximately 80% confluent.
2. The culture medium, McCOY's 5A medium (Gibco, Cat No. 16600-082) with 10% fetal bovine serum or FBS (Gibco, Cat No. 10099-141C), was pre-warmed in a 37° C. water bath for at least 30 min.
3. When the cells had reached a desired level of confluency of 80% in a T75 flask, the medium was aspirated, and the cells were washed with warm phosphate buffered saline or PBS two times.
4. 2-3 ml fresh warm trypsin (Gibco, Cat No. 25200-056) solution was added to the washed cells. The flask with the cells was transferred to a 37° C. incubator.
5. After 5 minutes, the side of the flask was tapped, and the flask was examined under a microscope for detachment of the cells to the flask. If necessary, the cells were kept in the incubator for an additional 5-10 minutes, with occasional tapping, until lifting was complete.
6. The trypsin reaction was neutralized by transferring 6-9 ml cell culture medium to sterile 15 ml conical tubes, and by centrifuging the cell culture at 300×g for 7 minutes to pellet the cells (supernatant decanted).
7. The cells were resuspended in fresh cell culture medium and the cell counting was performed using a hemocytometer.
8. 100 μl of the resuspended cell culture medium containing ˜5,000 cells were transferred into each well of the sterile 96-well cell culture plate (Corning 3903) and cultured overnight at 37° C. with 5% CO2.
Compound Titration and Treatment
1. All test compounds were dissolved in DMSO (Dimethyl sulfoxide) to create a 20 mM stock.
2. 3 μl of each compound 20 mM stock was mixed with 27 μl DMSO, and the compound solution was further diluted at a titration ratio of 1:3 (20 μl compound solution+40 μl DMSO) till the 10 points end.
3. All culture medium was removed from assay plates filled with HT-29 cell cultures. The cells were then washed with 1 PBS, and resuspended in fresh, FBS-free McCOY's 5A medium containing a cocktail of TNF-α (10 ng/ml), a SMAC mimetic compound (6 μM) and Z-VAD-fluoromethylketone or zVAD-FMK (10 μM) to stimulate the HT-29 cells to increase RIP1 kinase levels and necroptosis.
4. 0.5 μL of the diluted compound solution was added to the corresponding 96-well assay plates.
5. The assay plates were incubated for 20 hours at 37° C. with 5% CO2.
1. The CellTiter-Glo® Luminescent Cell Viability Assay was employed to detect the ATP levels of viable HT-29 cells.
2. The CellTiter-Glo® buffer and the lyophilized substrate were equilibrated to room temperature prior to use.
3. The CellTiter-Glo® substrate was resuspended with CellTiter-Glo® buffer, then mixed by gently vortexing to obtain a homogeneous solution.
4. 20 μl the enzyme/substrate mixture was transferred by multi-channel pipetting into 96-well assay plates.
5. The assay plates were placed on an orbital shaker and the contents were shaken for 3 minutes to induce cell lysis.
6. The assay plates were incubated at room temperature for 10 minutes to stabilize the luminescent signal.
7. The luminescence signals were read and recorded with EnVision.
8. The geometric mean EC50 values were calculated from 10 points response dose with duplicates. In

`N#Cc1cc(F)cc([C@@H]2CC=NN2C(=O)N2CCN(c3ncc(F)c(-c4ccc(O)nc4)n3)CC2)c1` [Compound 48, (S)-3-fluoro-5-(1-(4-(5-fluoro-4-(6-hydroxypyridin-3-yl)pyrimidin-2-yl)piperazine-1-carbonyl)-4,5-dihydro-1H-pyrazol-5-yl)benzonitrile] showed an EC50 of 0.1 to 100 nM.
Work on `COc1nc(OC)c(-c2nc(N3CCN(C(=O)N4N=CC[C@H]4c4cc(F)cc(F)c4)CC3)ncc2F)c(OC)n1` [Compound 49, (S)-(5-(3,5-difluorophenyl)-4,5-dihydro-1H-pyrazol-1-yl)(4-(5-fluoro-2′,4′,6′-trimethoxy-[4,5′-bipyrimidin]-2-yl)piperazin-1-yl)methanone] yielded an EC50 of 0.1 to 100 nM.
`N#Cc1cc(F)cc([C@@H]2CC=NN2C(=O)N2CCN(c3ncc(F)c(-c4cc(O)nc(O)n4)n3)CC2)c1` [Compound 50, (S)-3-fluoro-5-(1-(4-(5-fluoro-2′,6′-dihydroxy-[4,4′-bipyrimidin]-2-yl)piperazine-1-carbonyl)-4,5-dihydro-1H-pyrazol-5-yl)benzonitrile] showed an EC50 of 0.1 to 100 nM.
Molecule `Cn1c(-c2nc(N3CCN(C(=O)N4N=CC[C@H]4c4cc(F)cc(C#N)c4)CC3)ncc2F)cc(=O)n(C)c1=O` [Compound 51, (S)-3-fluoro-5-(1-(4-(5-fluoro-1′,3′-dimethyl-2′,6′-dioxo-1′,2′,3′,6′-tetrahydro-[4,4′-bipyrimidin]-2-yl)piperazine-1-carbonyl)-4,5-dihydro-1H-pyrazol-5-yl)benzonitrile] has an EC50 of 0.1 to 100 nM.
Molecule `O=C(N1CCN(c2ncc(F)c(-c3cn[nH]c3)n2)CC1)N1N=CC[C@H]1c1cc(F)cc(F)c1` [Compound 52, (S)-(5-(3,5-difluorophenyl)-4,5-dihydro-1H-pyrazol-1-yl)(4-(5-fluoro-4-(1H-pyrazol-4-yl)pyrimidin-2-yl)piperazin-1-yl)methanone] has an EC50 of 0.1 to 100 nM.
For `NC(=O)Cn1cc(-c2nc(N3CCN(C(=O)N4N=CC[C@H]4c4cc(F)cc(F)c4)CC3)ncc2F)cn1` [Compound 53, (S)-2-(4-(2-(4-(5-(3,5-difluorophenyl)-4,5-dihydro-1H-pyrazole-1-carbonyl)piperazin-1-yl)-5-fluoropyrimidin-4-yl)-1H-pyrazol-1-yl)acetamide], the EC50 was 0.1 to 100 nM.
`N#Cc1cc(F)cc([C@@H]2CC=NN2C(=O)N2CCN(c3ncc(F)c(-c4cn[nH]c4)n3)CC2)c1` [Compound 54, (S)-3-fluoro-5-(1-(4-(5-fluoro-4-(1H-pyrazol-4-yl)pyrimidinyl)piperazine-1-carbonyl)-4,5-dihydro-1H-pyrazol-5-yl)benzonitrile] gave an EC50 of 0.1 to 100 nM.
`Cc1nc(C)c(-c2nc(N3CCN(C(=O)N4N=CC[C@H]4c4cc(F)cc(F)c4)CC3)ncc2F)s1` [Compound 55, (S)-(5-(3,5-difluorophenyl)-4,5-dihydro-1H-pyrazol-1-yl)(4-(4-(2,4-dimethylthiazol-5-yl)-5-fluoropyrimidin-2-yl)piperazin-1-yl)methanone] gave an EC50 of 0.1 to 100 nM.
`Cc1ncc(-c2nc(N3CCN(C(=O)N4N=CC[C@H]4c4cc(F)cc(F)c4)CC3)ncc2F)s1` [Compound 56, (S)-(5-(3,5-difluorophenyl)-4,5-dihydro-1H-pyrazol-1-yl)(4-(5-fluoro-4-(2-methylthiazol-5-yl)pyrimidin-2-yl)piperazin-1-yl)methanone] gave an EC50 of 0.1 to 100 nM.
`Cc1ncc(-c2nc(N3CCN(C(=O)N4N=CC[C@H]4c4cc(F)cc(C#N)c4)CC3)ncc2F)s1` [Compound 57, (S)-3-fluoro-5-(1-(4-(5-fluoro-4-(2-methylthiazol-5-yl)pyrimidin-2-yl)piperazine-1-carbonyl)-4,5-dihydro-1H-pyrazol-5-yl)benzonitrile] was tested, and the EC50 was 0.1 to 100 nM.
`Cc1nn(C)c(C)c1-c1nc(N2CCN(C(=O)N3N=CC[C@H]3c3cc(F)cc(F)c3)CC2)ncc1F` [Compound 58, (S)-(5-(3,5-difluorophenyl)-4,5-dihydro-1H-pyrazol-1-yl)(4-(5-fluoro-4-(1,3,5-trimethyl-1H-pyrazol-4-yl)pyrimidin-2-yl)piperazin-1-yl)methanone] gave an EC50 of 0.1 to 100 nM.
For `Cc1nnnn1-c1nc(N2CCN(C(=O)N3N=CC[C@H]3c3cc(F)cc(C#N)c3)CC2)ncc1F` [Compound 59, (S)-3-fluoro-5-(1-(4-(5-fluoro-4-(5-methyl-1H-tetrazol-1-yl)pyrimidin-2-yl)piperazine-1-carbonyl)-4,5-dihydro-1H-pyrazol-5-yl)benzonitrile], the EC50 was 0.1 to 100 nM.
Work on `O=C(N1CCN(c2ncc(F)c(-c3cnn(CCO)c3)n2)CC1)N1N=CC[C@H]1c1cc(F)cc(F)c1` [Compound 60, (S)-(5-(3,5-difluorophenyl)-4,5-dihydro-1H-pyrazol-1-yl)(4-(5-fluoro-4-(1-(2-hydroxyethyl)-1H-pyrazol-4-yl)pyrimidin-2-yl)piperazin-1-yl)methanone] yielded an EC50 of 0.1 to 100 nM.
`Cc1cnn(C)c1-c1nc(N2CCN(C(=O)N3N=CC[C@H]3c3cc(F)cc(F)c3)CC2)ncc1F` [Compound 61, (S)-(5-(3,5-difluorophenyl)-4,5-dihydro-1H-pyrazol-1-yl)(4-(4-(1,4-dimethyl-1H-pyrazol-5-yl)-5-fluoropyrimidin-2-yl)piperazin-1-yl)methanone] showed an EC50 of 0.1 to 100 nM.
Molecule `Cc1cnn(C)c1-c1nc(N2CCN(C(=O)N3N=CC[C@H]3c3cc(F)cc(C#N)c3)CC2)ncc1F` [Compound 62, (S)-3-(1-(4-(4-(1,4-dimethyl-1H-pyrazol-5-yl)-5-fluoropyrimidin-2-yl)piperazine-1-carbonyl)-4,5-dihydro-1H-pyrazol-5-yl)-5-fluorobenzonitrile] has an EC50 of 0.1 to 100 nM.
For `Cc1nnc(-c2nc(N3CCN(C(=O)N4N=CC[C@H]4c4cc(F)cc(F)c4)CC3)ncc2F)s1` [Compound 63, (S)-(5-(3,5-difluorophenyl)-4,5-dihydro-1H-pyrazol-1-yl)(4-(5-fluoro-4-(5-methyl-1,3,4-thiadiazol-2-yl)pyrimidin-2-yl)piperazin-1-yl)methanone], the EC50 was 0.1 to 100 nM.
Molecule `Cc1nnc(-c2nc(N3CCN(C(=O)N4N=CC[C@H]4c4cc(F)cc(C#N)c4)CC3)ncc2F)s1` [Compound 64, (S)-3-fluoro-5-(1-(4-(5-fluoro-4-(5-methyl-1,3,4-thiadiazol-2-yl)pyrimidin-2-yl)piperazine-1-carbonyl)-4,5-dihydro-1H-pyrazol-5-yl)benzonitrile] has an EC50 of 0.1 to 100 nM.
In the case of `Cn1ncnc1-c1nc(N2CCN(C(=O)N3N=CC[C@H]3c3cc(F)cc(F)c3)CC2)ncc1F` [Compound 65, (S)-(5-(3,5-difluorophenyl)-4,5-dihydro-1H-pyrazol-1-yl)(4-(5-fluoro-4-(1-methyl-1H-1,2,4-triazol-5-yl)pyrimidin-2-yl)piperazin-1-yl)methanone], the EC50 is reported as 0.1 to 100 nM.
Molecule `Cn1ncnc1-c1nc(N2CCN(C(=O)N3N=CC[C@H]3c3cc(F)cc(C#N)c3)CC2)ncc1F` [Compound 66, (S)-3-fluoro-5-(1-(4-(5-fluoro-4-(1-methyl-1H-1,2,4-triazol-5-yl)pyrimidin-2-yl)piperazine-1-carbonyl)-4,5-dihydro-1H-pyrazol-5-yl)benzonitrile] has an EC50 of 0.1 to 100 nM.
Work on `Cn1ncc(C#N)c1-c1nc(N2CCN(C(=O)N3N=CC[C@H]3c3cc(F)cc(C#N)c3)CC2)ncc1F` [Compound 67, (S)-5-(2-(4-(5-(3-cyano-5-fluorophenyl)-4,5-dihydro-1H-pyrazole-1-carbonyl)piperazin-1-yl)-5-fluoropyrimidin-4-yl)-1-methyl-1H-pyrazole-4-carbonitrile] yielded an EC50 of 0.1 to 100 nM.
